Data published in PubChem BioAssay (NCI).
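GI50: concentration for 50% inhibition of growth. TGI denotes the concentration required for complete inhibition of growth.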

Tests used:
Test in all cases: inhibition of tumour cell growth, NCI panel, 384-well format
UO-31 renal = tested on: UO-31 renal
SR leukemia = tested on: SR leukemia
MALME-3M melanoma = tested on: MALME-3M melanoma
MDA-MB-231 breast = tested on: MDA-MB-231 breast
NCI-H23 lung = tested on: NCI-H23 lung
HCC-2998 colon = tested on: HCC-2998 colon
RXF 393 renal = tested on: RXF 393 renal
MOLT-4 leukemia = tested on: MOLT-4 leukemia
SN12C renal = tested on: SN12C renal
OVCAR-4 ovarian = tested on: OVCAR-4 ovarian
MCF7 breast = tested on: MCF7 breast
SNB-75 CNS = tested on: SNB-75 CNS
SW-620 colon = tested on: SW-620 colon
A549 NSCLC = tested on: A549 NSCLC
HS 578T breast = tested on: HS 578T breast
HCT-15 colon = tested on: HCT-15 colon
SK-MEL-28 melanoma = tested on: SK-MEL-28 melanoma
NCI-H460 NSCLC = tested on: NCI-H460 NSCLC
SK-OV-3 ovarian = tested on: SK-OV-3 ovarian
SK-MEL-5 melanoma = tested on: SK-MEL-5 melanoma
CCRF-CEM leukemia = tested on: CCRF-CEM leukemia
SF-268 CNS = tested on: SF-268 CNS
TK-10 renal = tested on: TK-10 renal
COLO 205 colon = tested on: COLO 205 colon
A498 renal = tested on: A498 renal
NCI-H522 lung = tested on: NCI-H522 lung
M14 melanoma = tested on: M14 melanoma
MDA-MB-435 melanoma = tested on: MDA-MB-435 melanoma
RPMI-8226 leukemia = tested on: RPMI-8226 leukemia
NCI-H322M lung = tested on: NCI-H322M lung
SF-539 CNS = tested on: SF-539 CNS
HOP-92 NSCLC = tested on: HOP-92 NSCLC
IGROV1 ovarian = tested on: IGROV1 ovarian
KM12 colon = tested on: KM12 colon
NCI/ADR-RES ovarian = tested on: NCI/ADR-RES ovarian
HT29 colon = tested on: HT29 colon
UACC-257 melanoma = tested on: UACC-257 melanoma
HCT-116 colon = tested on: HCT-116 colon
ACHN renal = tested on: ACHN renal
SF-295 CNS = tested on: SF-295 CNS
LOX IMVI melanoma = tested on: LOX IMVI melanoma
SNB-19 CNS = tested on: SNB-19 CNS
DU-145 prostate = tested on: DU-145 prostate
U251 glioblastoma = tested on: U251 glioblastoma
UACC-62 melanoma = tested on: UACC-62 melanoma
BT-549 breast = tested on: BT-549 breast
OVCAR-3 ovarian = tested on: OVCAR-3 ovarian
786-0 renal = tested on: 786-0 renal
CAKI-1 renal = tested on: CAKI-1 renal
EKVX NSCLC = tested on: EKVX NSCLC
HOP-62 NSCLC = tested on: HOP-62 NSCLC
T-47D breast = tested on: T-47D breast
OVCAR-8 ovarian = tested on: OVCAR-8 ovarian
K-562 leukemia = tested on: K-562 leukemia
NCI-H226 lung = tested on: NCI-H226 lung
MDA-MB-468 breast = tested on: MDA-MB-468 breast

CCCCS(=O)c1sc2nc(-c3cccs3)cc(-c3ccccc3)c2c1N (configuration not stated)
GI50 (UO-31 renal): 29.2 µM | TGI (UO-31 renal): > 100 µM | GI50 (SR leukemia): 3.73 µM | TGI (SR leukemia): 8.78 µM | GI50 (MALME-3M melanoma): 28.8 µM | TGI (MALME-3M melanoma): 73.2 µM | GI50 (MDA-MB-231 breast): 25.7 µM | TGI (MDA-MB-231 breast): > 100 µM | GI50 (NCI-H23 lung): 21.4 µM | TGI (NCI-H23 lung): 97.9 µM | GI50 (HCC-2998 colon): 27.2 µM | TGI (HCC-2998 colon): 63.3 µM | GI50 (RXF 393 renal): 20.4 µM | TGI (RXF 393 renal): 95.5 µM | GI50 (MOLT-4 leukemia): 6.07 µM | TGI (MOLT-4 leukemia): 18.1 µM | GI50 (SN12C renal): 65 µM | TGI (SN12C renal): > 100 µM | GI50 (OVCAR-4 ovarian): 30.4 µM | TGI (OVCAR-4 ovarian): > 100 µM | GI50 (MCF7 breast): 13.5 µM | TGI (MCF7 breast): 90.7 µM | GI50 (SNB-75 CNS): 27.2 µM | TGI (SNB-75 CNS): > 100 µM | GI50 (SW-620 colon): > 100 µM | TGI (SW-620 colon): > 100 µM | GI50 (A549 NSCLC): 12.5 µM | TGI (A549 NSCLC): > 100 µM | GI50 (HS 578T breast): 14.1 µM | TGI (HS 578T breast): 76.2 µM | GI50 (HCT-15 colon): 19.1 µM | TGI (HCT-15 colon): > 100 µM | GI50 (SK-MEL-28 melanoma): > 100 µM | TGI (SK-MEL-28 melanoma): > 100 µM | GI50 (NCI-H460 NSCLC): 13.7 µM | TGI (NCI-H460 NSCLC): 32.4 µM | GI50 (SK-OV-3 ovarian): 31.9 µM | TGI (SK-OV-3 ovarian): > 100 µM | GI50 (SK-MEL-5 melanoma): 13.8 µM | TGI (SK-MEL-5 melanoma): 26.8 µM | GI50 (CCRF-CEM leukemia): 11.4 µM | TGI (CCRF-CEM leukemia): 28.3 µM | GI50 (SF-268 CNS): > 100 µM | TGI (SF-268 CNS): > 100 µM | GI50 (TK-10 renal): 29.5 µM | TGI (TK-10 renal): > 100 µM | GI50 (COLO 205 colon): 34.4 µM | TGI (COLO 205 colon): > 100 µM | GI50 (A498 renal): 21.2 µM | TGI (A498 renal): 79.2 µM | GI50 (NCI-H522 lung): 17 µM | TGI (NCI-H522 lung): 90.5 µM | GI50 (M14 melanoma): > 100 µM | TGI (M14 melanoma): > 100 µM | GI50 (MDA-MB-435 melanoma): 36.1 µM | TGI (MDA-MB-435 melanoma): > 100 µM | GI50 (RPMI-8226 leukemia): 4.38 µM | TGI (RPMI-8226 leukemia): 14.6 µM | GI50 (NCI-H322M lung): 32.2 µM | TGI (NCI-H322M lung): > 100 µM | GI50 (SF-539 CNS): 23.9 µM | TGI (SF-539 CNS): 52.2 µM | GI50 (HOP-92 NSCLC): 26.4 µM | TGI (HOP-92 NSCLC): 99.2 µM | GI50 (IGROV1 ovarian): 38.6 µM | TGI (IGROV1 ovarian): > 100 µM | GI50 (KM12 colon): > 100 µM | TGI (KM12 colon): > 100 µM | GI50 (NCI/ADR-RES ovarian): 14 µM | TGI (NCI/ADR-RES ovarian): 59 µM | GI50 (HT29 colon): 26 µM | TGI (HT29 colon): > 100 µM | GI50 (UACC-257 melanoma): 26.9 µM | TGI (UACC-257 melanoma): 84.1 µM | GI50 (HCT-116 colon): 26 µM | TGI (HCT-116 colon): 91 µM | GI50 (ACHN renal): 31.7 µM | TGI (ACHN renal): > 100 µM | GI50 (SF-295 CNS): 19.6 µM | TGI (SF-295 CNS): 96.5 µM | GI50 (LOX IMVI melanoma): 16.7 µM | TGI (LOX IMVI melanoma): 38.1 µM | GI50 (SNB-19 CNS): 32.5 µM | TGI (SNB-19 CNS): > 100 µM | GI50 (DU-145 prostate): 28.7 µM | TGI (DU-145 prostate): > 100 µM | GI50 (U251 glioblastoma): 23.2 µM | TGI (U251 glioblastoma): > 100 µM | GI50 (UACC-62 melanoma): > 100 µM | TGI (UACC-62 melanoma): > 100 µM | GI50 (BT-549 breast): 16.5 µM | TGI (BT-549 breast): 45.6 µM | GI50 (OVCAR-3 ovarian): 16.7 µM | TGI (OVCAR-3 ovarian): 43.5 µM | GI50 ([…]-0 renal): 27.9 µM | TGI (786-0 renal): > 100 µM | GI50 (CAKI-1 renal): 31.9 µM | TGI (CAKI-1 renal): > 100 µM | GI50 (EKVX NSCLC): 27.8 µM | TGI (EKVX NSCLC): > 100 µM | GI50 (HOP-62 NSCLC): 29.9 µM | TGI (HOP-62 NSCLC): 93.8 µM | GI50 (T-47D breast): 19.2 µM | TGI (T-47D breast): > 100 µM | GI50 (OVCAR-8 ovarian): 25.2 µM | TGI (OVCAR-8 ovarian): > 100 µM | GI50 (K-562 leukemia): 8.47 µM | TGI (K-562 leukemia): > 100 µM | GI50 (NCI-H226 lung): 25.7 µM | TGI (NCI-H226 lung): 74.6 µM | GI50 (MDA-MB-468 breast): 15 µM | TGI (MDA-MB-468 breast): 42.7 µM
